In ChEMBL document CHEMBL1201862, “PubChem BioAssay data set” (2004):
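A five-concentration, 48-hour dose response in 96-well plates underlies each endpoint, interpolated linearly between surrounding concentrations. Abbreviation: GI50, concentration required for 50% inhibition of growth.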 The source made the active and inactive calls. Cut-off read from the data, not from the text of the source: active = GI50 up to about 1.1 µM and inactive = higher.

Legend:
Assay in all cases: NCI-60 cell line screen, 48 h
DLD-1 = test system: DLD-1
DMS-114 = test system: DMS-114
DMS-273 = test system: DMS-273
HOP-18 = test system: HOP-18
KM-20L2 = test system: KM-20L2
LXFL 529 = test system: LXFL 529
RXF 631 = test system: RXF 631
BT-549 = test system: BT-549
XF498 = test system: XF498

Structure (SMILES) | GI50 (DLD-1) | GI50 (DMS-114) | GI50 (DMS-273) | GI50 (KM-20L2) | GI50 (LXFL 529) | GI50 (BT-549) | further results
Cn1c2ccccc2c2ccc3c(c21)C(=O)c1ccc2c4ccccc4n(C)c2c1C3=O |  |  |  |  |  | > 100 µM (inactive) | 
Cn1cnc(CCc2ccccc2)n1 | > 100 µM (inactive) | > 100 µM (inactive) | > 100 µM (inactive) | > 100 µM (inactive) | > 100 µM (inactive) |  | GI50 (HOP-18): > 100 µM (inactive)
CCN1C(=O)c2ccccc2C1(O)c1ccc(Cl)cc1 (stereo not given) |  |  |  |  |  | > 100 µM (inactive) | 
COc1cccc(C2c3cc4c(cc3OC3COC(=O)C32)OCO4)c1OC (stereo not given) |  |  |  |  |  | > 100 µM (inactive) | 
CCn1c(-c2ccc(OC)cc2)nc2c1C(=O)c1ccccc1C2=O |  |  |  |  |  | 67.6 µM (inactive) | 
S=C(c1c[nH]c2ccccc12)N1CCN(c2ccccc2)CC1 |  |  |  |  |  | > 100 µM (inactive) | 
CC1(CNCc2ccccc2)CC(CCc2ccccc2)N(C(=O)c2ccc([N+](=O)[O-])cc2)C1Cc1ccc(O)cc1 (stereo not given) |  |  |  |  |  | 16.1 µM (inactive) | 
CCOC(=O)c1c2ccc(/C=C/c3ccccc3)ccc-2c(C(=O)OCC)c1N | > 100 µM (inactive) | > 100 µM (inactive) | > 100 µM (inactive) | > 100 µM (inactive) | 78.7 µM (inactive) |  | GI50 (HOP-18): > 100 µM (inactive); GI50 (RXF 631): > 100 µM (inactive)
COCCOCCOC1=CC(=O)c2c(O)ccc(O)c2C1=O |  |  |  |  |  | 1.79 µM (inactive) | 
Oc1ccccc1/C=N/c1nc2cc3sc(/N=C/c4ccccc4O)nc3cc2s1 |  |  |  |  |  | > 61.8 µM (inactive) | 
COC(=O)CCC1=NCC(C)(C)O1 |  |  |  |  |  | > 10 µM (inactive) | 
ClCCC[Si]12OCCN(CCO1)CCO2 | > 100 µM (inactive) | > 100 µM (inactive) | > 100 µM (inactive) |  | > 100 µM (inactive) |  | 
CC1(C)CCCCCC(C)(CCCCCCCCCCCO)C1=O (stereo not given) |  |  |  |  |  | 18.9 µM (inactive) | 
C[N+](C)(C)CC1CCC/C1=N/O (stereo not given) | > 100 µM (inactive) | 20 µM (inactive) | 60.7 µM (inactive) | 17.8 µM (inactive) | 54.5 µM (inactive) |  | GI50 (HOP-18): > 100 µM (inactive); GI50 (XF498): 1.68 µM (inactive)
COC(=O)[C@@H]1CCCCC[C@H]2C(CO)=C(C)C(=O)C12 (stereo not given in full) | > 100 µM (inactive) | > 100 µM (inactive) | > 100 µM (inactive) | > 100 µM (inactive) | > 100 µM (inactive) |  | GI50 (HOP-18): > 100 µM (inactive); GI50 (XF498): > 100 µM (inactive)
COc1cc(NCc2ccc3n2-c2ccccc2OC3)cc(OC)c1OC |  |  |  |  |  | 24.2 µM (inactive) | 

Structure (SMILES) | GI50 (DLD-1) | GI50 (DMS-114) | GI50 (DMS-273) | GI50 (KM-20L2) | GI50 (LXFL 529) | GI50 (BT-549) | further results
Cc1cc(C)nc(NS(=O)(=O)c2ccc(NC(=O)c3ccc(Cl)c4c(Nc5ccc(S(=O)(=O)Nc6cc(C)on6)cc5)c5ccccc5nc34)cc2)n1 | 16 µM (inactive) | 17.9 µM (inactive) | 17.4 µM (inactive) | 18.5 µM (inactive) | 16.8 µM (inactive) |  | GI50 (HOP-18): 15.7 µM (inactive); GI50 (RXF 631): 17.7 µM (inactive)
CC(=O)NNc1nc(C)c(C(=O)NNC(=O)C(=O)Nc2c(Cl)cc([N+](=O)[O-])cc2Cl)s1 |  | 32.6 µM (inactive) | 32.6 µM (inactive) | 31.9 µM (inactive) | 33.7 µM (inactive) |  | 
CCn1c(=O)c2c3ccc(O)cc3oc2c2ccc(O)cc21 |  |  |  |  |  | 26.1 µM (inactive) | 
CSc1nc(C#N)c(/N=C\N(C)C)n1C |  |  |  |  |  | > 100 µM (inactive) | 
CCN(CC)CCN1CCN=c2c3cc(OC)ccc3n3cnc4ccc1c2c43 |  |  |  |  |  | 1.27 µM (inactive) | 
CCc1cccc(C(C)C)c1NC(=O)C(=O)CC(=O)c1c(C)[n+]([O-])c2ccccc2[n+]1[O-] | > 100 µM (inactive) | > 100 µM (inactive) |  | > 100 µM (inactive) | > 100 µM (inactive) |  | GI50 (RXF 631): > 100 µM (inactive); GI50 (XF498): > 100 µM (inactive)
O=C1C[C@@H]2[C@@H](C=CC23CC3)N1O | > 100 µM (inactive) |  | > 100 µM (inactive) | > 100 µM (inactive) | > 100 µM (inactive) |  | GI50 (HOP-18): > 100 µM (inactive)
CC1(C)CC2C=C(C=O)C3(C=O)CC3(C)C2C1 (stereo not given) |  |  |  |  |  | 1.81 µM (inactive) | 
CC(NC(=N)N)C(=O)O (stereo not given) |  |  |  |  |  | > 100 µM (inactive) | 
CCOP(=O)(/C=C\n1ccc(N)nc1=O)OCC |  |  |  |  |  | > 100 µM (inactive) | 
O=C1C2=Cc3ccccc3OC2(O)Oc2cc(O)ccc21 (stereo not given) |  |  |  |  |  | > 100 µM (inactive) | 
C=C(Cl)C(Cl)(CBr)CCCC(C)(C)Cl (stereo not given) |  |  |  |  |  | 52 µM (inactive) | 
CC(=O)OCC1=C(C)C(OC(=O)C(OC(C)=O)[C@@H](NC(=O)c2ccccc2)c2ccccc2)CCC1(C)C (stereo not given in full) |  |  |  |  |  | > 100 µM (inactive) | 
O=C(/C=C/c1ccc(O)c(O)c1)NC(COC(=O)/C=C/c1ccc(O)c(O)c1)C(=O)O (stereo not given) |  |  |  |  |  | > 100 µM (inactive) | 
NCCCNCCCCN(CCCN)/[N+]([O-])=N\O | > 100 µM (inactive) | > 100 µM (inactive) | > 100 µM (inactive) | > 100 µM (inactive) | > 100 µM (inactive) |  | GI50 (HOP-18): > 100 µM (inactive); GI50 (RXF 631): > 100 µM (inactive)
C/C(=C\COc1ccc2ccc(=O)oc2c1)C1=CC(=O)C(C)(C)O1 [GEIPARVARIN] | 2.26 µM (inactive) | 4.19 µM (inactive) | 4.42 µM (inactive) | 3.39 µM (inactive) |  | 3.69 µM (inactive) | GI50 (HOP-18): 66.7 µM (inactive); GI50 (XF498): 4.1 µM (inactive)
